Experiments:
[1] = system: tetradecanoylphorbol 13-acetate (TPA) induced ear edema; assay: TPA-induced ear edema model; format: in vivo, mice; conditions: for AUC reduction (%) TPA: 10 μg one single s.c. injection 20 minutes before TPA, compared to PBS control; for Peak reduction (%) TPA: 10 μg subcutaneously 20 minutes before induction of edema
Description: A stock solution of TPA was prepared by dissolving TPA in DMSO, 1 mg/mL, and was stored frozen at −80° C. For study B-E, a working solution was prepared with 200 μL of the TPA stock solution added to 800 μL acetone. The working solution was used the same day as it was prepared.
Each cage was identified by a cage card marked with study number, group number, ethical approval number, sex and animal ear numbers. The animals were individually marked on the tail with transverse lines corresponding to the animals' number, using a permanent-ink felt pen. An illustration of the protocols used for the different treatments is outlined in Table 4. The compounds were tested according to the same protocols with necessary modifications.
Intraperitoneal (i.p.) injections were performed by giving 100 μL in the lower right quadrant of the abdomen. Subcutaneous injections were done with 100 μL in the neck region. Intranasal administration was performed by letting the mouse inhale droplets into the nostrils, total volume 40 μL. All administrations were done on non-anesthetized mice.
(§1) Both outer ears of a non-anesthetized mouse were washed with mild soap (Palmolive, Sweden) using a soft tooth brush, the ears were dried with tissue and cleaned with tissue soaked with acetone. After allowing the acetone to evaporate, TPA or AA was applied on both sides, 10 μL, on each side of the ear with care to cover the whole ear. The mouse was held for 20 seconds to allow the solvent to evaporate.
Intraperitoneal injections were given in the lower right quadrant of the abdomen with the animal held in a supine position. Subcutaneous (s.c.) injections were given in the neck of the animals. Intranasal administrations were given to mice held in a slightly reclining position. With an adjustable micro-pipette 40 μL of the test substance was given in droplets on the nostrils and the mouse was allowed to aspirate at free will.
(§2) The ears of non-anesthetized mice were measured at different time points for up to 96 hours after the TPA was administered, or up to 24 hours for the AA model. The first measurements were done before the edema was induced. The thickness was recorded with a spring loaded dial micrometer (Limit, Thickness Gauge, accuracy 0.01 mm, contact area Ø6 mm, Luna AB, Allingsås, Sweden) in triplicates at all time points per ear.
(§3) The average thickness for both ears on a mouse was calculated and compared to the average thickness of the ears at the starting time point. The value obtained at the start of the experiment was set as 100%. The peak values and area under the curve (AUC) values for the treatment groups were calculated and compared to the inflamed control group, treated with PBS (set as 100%), and expressed as a percentage change (Δ% AUC).
(§4) Area under the curve (AUC) with base line set as 100 was calculated using GraphPad Prism version 4.03 for Windows (GraphPad Software, San Diego Calif. USA, www.graphpad.com).
AUC reduction and P-values were calculated against the positive control (TPA or AA+PBS).

[2] = system: OVA induced airway inflammation; assay: Ovalbumin (OVA) induced allergic airway inflammation, BAL fluid cell counts; format: in vivo, Balb/c mice; conditions: prophylactic protocol, 50 μg/animal intranasal on day 16 and 21; for cell migration into BAL fluid: second experiment
Description: Mice were sensitized intraperitoneally with 200 μL OVA/aluminium hydroxide gel (1:3) on day 0 and 12 (see FIG. 6). OVA (chicken egg albumin grade V, Sigma, St. Louis, Mo.) was dissolved in saline and mixed with aluminium hydroxide gel to a concentration of 50 μg/mL by rotation at 4° C. for 3 h. On days 23, 26, 30 and 33 (see FIG. 6), mice were challenged in the lungs by inhalation of aerosolized OVA for 30 minutes using a Batelle exposure chamber. Aerosols were generated by a compressed-air nebulizer (Collison 6-jet) at airflow 7.4 L/min using a nebulizer concentration of 10 mg/mL OVA dissolved in PBS (Sigma, St Louis, Mo., USA). The control group with non-sensitized animals received no other treatment than aerosolized OVA at days 23, 26, 30 and 33.
In this OVA model (FIG. 6), a total of 4 oligonucleotides were tested, IDX9025, IDX9038, IDX9053 (Table 1, SEQ ID NO 2-4) and IDX0150 (Table 3, SEQ ID NO 11). The oligonucleotides were synthesized by biomers.net GmbH, Ulm, Germany and stored frozen at −20° C. The oligonucleotides were diluted with PBS to the working concentration (1,247 μg/μL) and kept at −20° C. until the first day of instillation, thereafter they were placed at 4° C.
In a first experiment, both prophylactic and therapeutic protocols were tested (see FIG. 6). The drug treatment consisted of intranasal instillations of IDX0150 (1,247 μg/μL, provided by InDex Pharmaceuticals AB, Stockholm, Sweden) on days 16 and 21 (prophylactic protocol), on days 30 and 33 (therapeutic protocol A) or on days 30 and 34 (therapeutic protocol B). The instillations in the therapeutic protocols (A & B) on days 30 and 33 were given 4 h after aerosol challenge. The second instillation in protocol B on day 34 was given 24 h after the last aerosol challenge. The drug was administered in 40 μL PBS giving a dose of ˜50 μg/mice (49.88 μg/mice). The two sensitized sham-treatment groups were instilled with PBS, the same total volume as for the treatment groups, according to either the prophylactic protocol (days 16 and 21) or to the therapeutic protocol A (days 30 and 33).
In a second experiment, since administration of IDX0150 in the first experiment using prophylactic protocol (FIG. 6) gave a significant reduction of airway inflammation (FIG. 7), three other substances were tested with the same protocol. The drug treatment consisted of intranasal instillations of IDX9025, IDX9038 and IDX9053 (Table 1) (1,247 μg/μL, provided by InDex Pharmaceuticals AB) on days 16 and 21 (see FIG. 6, prophylactic protocol). All substances were administered in 40 μL PBS giving a dose of ˜50 μg/mice (49.88 μg/mice). The two sensitized sham-treatment groups were instilled with PBS, the same total volume as for the treatment groups, according to the prophylactic protocol (days 16 and 21).
Mice were killed by cervical dislocation 42 h after the last OVA aerosol challenge. The trachea was cannulated with polyethylene tubing (Becton Dickinson, Sparks, Md., USA) and bronchoalveolar lavage (BAL) was performed using 4×1 mL aliquots of ice-cold Hank's balanced salt solution (HBSS) (Sigma, St Louis, Mo., USA). The BAL fluid was centrifuged (400 g, 10 min, 4° C.) and the BAL fluid cells were resuspended in 0.4 mL PBS. The total number of leukocytes counted using tryphan blue exclusion in a Barker chamber. Duplicate Cytospin (Cytospin 3, Shandon, Runcorn, UK) preparations of BAL fluid cells were stained with May Grünewald Giemsa for differential counts, using standard morphological criteria.
Statistical comparisons were performed using One-way analysis of variance (ANOVA) using Dunnett's post hoc correction to compare with sensitized PBS treated control mice (GraphPad Prism 3). Data are shown as mean±standard deviation. P<0.05 was considered significant.

[3] = system: arachidonic acid (AA) induced ear edema; assay: Arachidonic acid (AA) induced ear edema model; format: in vivo, mice
Description: A stock solution of AA was prepared by diluting AA in acetone, 4 mg/10 μL, and was stored frozen at −80° C. A final working solution, 1 mg/10 μL, in acetone was prepared. The working solution was used within one hour after preparation.
as §1, §2, §3, §4
In addition to the experiments done with the control compounds and IDX0001, all other test compounds were investigated in a similar fashion in the TPA and/or AA ear edema models, where the test compounds were given subcutaneously (10 μg) 20 minutes before induction of edema. The results were expressed as reduction of peak value and reduction of area under curve (AUC) in Table 5.

Substance: G*G*G*TCGTCTG*C*G*G (GGGTCGTCTGCGG; DNA, linkages s3 o6 s3 (s phosphorothioate, o phosphodiester), methylation of C not given here) [IDX9053]
- AUC reduction (%) TPA [1]: −39.0%
- Peak reduction (%) TPA [1]: −30.5%
- cell migration into BAL fluid [2]: no significant reduction of cell migration

Substance: T*C*G*TCGTTCGGCCGATCG*T*C*C (TCGTCGTTCGGCCGATCGTCC; DNA, linkages s3 o14 s3 (s phosphorothioate, o phosphodiester), methylation of C not given here) [IDX9038, oligonucleotide; * = phosphorothioate modification]
- AUC reduction (%) TPA [1]: −47.4%
- Peak reduction (%) TPA [1]: −37.9%
- migration of eosinophils into the BAL fluid ([2]; P<0.001): significantly reduce
- migration of leukocytes into the BAL fluid ([2]; P<0.05): significantly reduce

Substance: T*G*C*CATTCGTCGATTTCGTC*G*A*T (TGCCATTCGTCGATTTCGTCGAT; DNA, linkages s3 o16 s3 (s phosphorothioate, o phosphodiester), methylation of C not given here) [IDX9025, oligonucleotide; * = phosphorothioate modification]
- AUC reduction (%) TPA [1]: −57.8%
- Peak reduction (%) TPA [1]: −23.5%
- AUC reduction (%) AA ([3]; 10 μg one single s.c. injection 20 minutes before AA, compared to PBS control): −81.9%
- Peak reduction (%) AA ([3]; 10 μg subcutaneously 20 minutes before induction of edema): −14.9%
- cell migration into BAL fluid [2]: no significant reduction of cell migration

From patent US8410068B2, “Compounds for the treatment or alleviation of edema, and methods for their use” (Index Pharmaceuticals AB, priority 2007, dated 2013)
